# Assay results: patent publication US9781930B2, “3′-substituted-abscisic acid derivatives” (Valent BioSciences Corporation, priority 2014, dated 2017)
# Columns and labels:
# Format in all cases: in vivo
# [1] = tested on: Arabidopsis thaliana seed; assay: Seed germination assay for testing Examples 29-46
# Method: (§1) Seed Germination Assay for Testing Examples 29-46 To determine the germination inhibition potency of the (±)-ABA derivatives, germination assays were performed with the model plant Arabidopsis thaliana. Arabidopsis seed was sterilized by soaking in 70% ethanol solution for 5 minutes, followed by 5% sodium hypochlorite solution for 10 minutes. The seeds were then washed three times with sterile water. The test compounds were tested in germination assay at five concentrations (0.16, 0.64, 2.5, 10, and 40 μM) with (S)-ABA (0.16, 0.64 and 2.5 μM) as a control in 6-well plates. DMSO stock solutions of (S)-ABA and the derivatives at 1,000 fold of the test concentrations were prepared. The stock solutions (5 μL) of (S)-ABA and the derivatives were added to the wells in the assay plate with 0.8% agar solutions of ½ Murashige and Skoog media. Sixteen sterile seeds were placed on the solid agar medium at an appropriate spacing. The assay plates were sealed with surgical tape and wrapped in aluminum foil, and the seeds were vernalized at 4° C. for 2 days. The assay plates were incubated in a growth chamber at 22.5° C. under daily light cycles of 16 hours (30 μmol/m^2·sec) for 4 days after the vernalization. The germination inhibition potency of the derivatives was scored and compared with that of (S)-ABA. The results are summarized in Table 2 “Table 2: Arabidopsis seed germination inhibition activity of (±)-ABA derivatives.”
# [2] = tested on: Arabidopsis thaliana seed; assay: Seed germination assay for testing Examples 29-46; parameters: key: ++++: The 3′-substituted-derivatives were scored by potency relative to ABA.; (S)-ABA potency = +++.; ++: The 3′-substituted-derivatives were scored by potency relative to ABA.; +: The 3′-substituted-derivatives were scored by potency relative to ABA.; −− = no effect; settings: 0.16-40 μM in 6-well plates, 4 days after vernalization, compared with (S)-ABA
# Method: as §1
# [3] = tested on: Arabidopsis thaliana seed; assay: Seed germination inhibition assay for testing Examples 1-28 and 47-50; parameters: key to Arabidopsis seed germination inhibition potency: + + + +: The other derivatives were scored by potency relative to S-ABA.; (S)-ABA potency = + + +.; + +: The other derivatives were scored by potency relative to S-ABA.; ++: The other derivatives were scored by potency relative to S-ABA.; +: The other derivatives were scored by potency relative to S-ABA.; −− = no effect; settings: 0.01-10.0 ppm in 96-well plates, scored on day 7, relative to (S)-ABA
# Method: Seed Germination Inhibition Assay for Testing Examples 1-28 and 47-50 To determine the germination inhibition potency of the (S)-ABA derivatives, germination assays were performed with the model plant Arabidopsis thaliana. Arabidopsis seed was sterilized by shaking for five minutes in 200-proof ethanol, and followed by shaking for five minutes in a 10% bleach solution. The seeds were then washed five times in sterile, distilled, de-ionized water and suspended in 0.1% phytoagar. The tubes containing the seeds were wrapped in aluminum foil and stratified at 4° C. for two days. All compounds were tested at eight concentrations of 0 (DMSO control), 0.01, 0.03, 0.1, 0.3, 1.0, 3.0, and 10.0 ppm in 96-well plates. Each plate contained eight replicates of each concentration of the test compound and eight replicates of (S)-ABA at 0.1 ppm as the positive control. As an additional set of controls, each run of the assay also contained one plate dosed with (S)-ABA covering a range of concentrations up to 10 ppm. For each compound, 10× stock solutions corresponding to each of the tested concentrations were prepared in distilled and de-ionized water containing 5% DMSO. The stock test solution (10 μL) was added to each well according to the scheme described above, and 90 μL of ½× Murashige and Skoog media containing 1.2% Bactoagar was then added to each well (final DMSO concentration was 0.5%). When the media solidified, ten to fifteen sterile stratified Arabidopsis seeds were distributed into each well using a repeat pipettor. The plates were sealed with surgical tape and placed in a growth chamber running diurnal cycles of 12 hours of light at 24° C. and 12 hours of darkness at 19° C. The plates were scanned on days 3 through 7, and scored on day 7. The 3′-substituted-(S)-ABA derivatives were scored on ability to inhibit germination relative to the potency of (S)-ABA. The results are summarized below in “Table 1: Arabidopsis seed germination inhibition activity of (S)-ABA derivatives.”
structure (smiles),measurement,setting,value
"CC1=C(C2CC2)C(=O)CC(C)(C)C1(O)/C=C/C(C)=C\C(=O)O (racemic) [Example 29, (2Z,4E)-5-(3-cyclopropyl-1-hydroxy-2,6,6-trimethyl-4-oxocyclohex-2-en-1-yl)-3-methylpenta-2,4-dienoic acid]",germination inhibition activity compared to (S)-ABA (in words),[1],the same level of potency as (S)-ABA
same,Arabidopsis seed germination inhibition potency,[2],+++
"CCCC1=C(C)C(O)(/C=C/C(C)=C\C(=O)O)C(C)(C)CC1=O (racemic) [Example 30, (2Z,4E)-5-(1-hydroxy-2,6,6-trimethyl-4-oxo-3-propylcyclohex-2-en-1-yl)-3-methylpenta-2,4-dienoic acid]",germination inhibition activity compared to (S)-ABA (in words),[1],the same level of potency as (S)-ABA
same,Arabidopsis seed germination inhibition potency,[2],+++
"CC1=C(C(C)C)C(=O)CC(C)(C)C1(O)/C=C/C(C)=C\C(=O)O (racemic) [Example 31, (2Z,4E)-5-(1-hydroxy-3-isopropyl-2,6,6-trimethyl-4-oxocyclohex-2-en-1-yl)-3-methylpenta-2,4-dienoic acid]",Arabidopsis seed germination inhibition potency,[2],+
"CCC1=C(C)C(O)(/C=C/C(C)=C\C(=O)O)C(C)(C)CC1=O (racemic) [Example 32, (2Z,4E)-5-(3-ethyl-1-hydroxy-2,6,6-trimethyl-4-oxocyclohex-2-en-1-yl)-3-methylpenta-2,4-dienoic acid]",germination inhibition activity compared to (S)-ABA (in words),[1],the same level of potency as (S)-ABA
same,Arabidopsis seed germination inhibition potency,[2],+++
"CCCCC1=C(C)C(O)(/C=C/C(C)=C\C(=O)O)C(C)(C)CC1=O (racemic) [Example 33, (2Z,4E)-5-(3-butyl-1-hydroxy-2,6,6-trimethyl-4-oxocyclohex-2-en-1-yl)-3-methylpenta-2,4-dienoic acid]",Arabidopsis seed germination inhibition potency,[2],+
"CC1=C(C(F)F)C(=O)CC(C)(C)C1(O)/C=C/C(C)=C\C(=O)O (racemic) [Example 38, (2Z,4E)-5-(3-(difluoromethyl)-1-hydroxy-2,6,6-trimethyl-4-oxocyclohex-2-en-1-yl)-3-methylpenta-2,4-dienoic acid]",germination inhibition activity compared to (S)-ABA (in words),[1],the same level of potency as (S)-ABA
same,Arabidopsis seed germination inhibition potency,[2],+++
"CC1=C(C(C)(F)F)C(=O)CC(C)(C)C1(O)/C=C/C(C)=C\C(=O)O (racemic) [Example 39, (2Z,4E)-5-(3-(1,1-difluoroethyl)-1-hydroxy-2,6,6-trimethyl-4-oxocyclohex-2-en-1-yl)-3-methylpenta-2,4-dienoic acid]",germination inhibition activity compared to (S)-ABA (in words),[1],more active than (S)-ABA
same,Arabidopsis seed germination inhibition potency,[2],++++
"CC1=C(C(C)F)C(=O)CC(C)(C)C1(O)/C=C/C(C)=C\C(=O)O (racemic) [Example 40, (2Z,4E)-5-(3-(1-fluoroethyl)-1-hydroxy-2,6,6-trimethyl-4-oxocyclohex-2-en-1-yl)-3-methylpenta-2,4-dienoic acid]",germination inhibition activity compared to (S)-ABA (in words),[1],more active than (S)-ABA
same,Arabidopsis seed germination inhibition potency,[2],++++
"CC1=C(C2CCC2)C(=O)CC(C)(C)C1(O)/C=C/C(C)=C\C(=O)O (racemic) [Example 41, (2Z,4E)-5-(3-cyclobutyl-1-hydroxy-2,6,6-trimethyl-4-oxocyclohex-2-en-1-yl)-3-methylpenta-2,4-dienoic acid]",Arabidopsis seed germination inhibition potency,[2],++
"CC1=C(C2CC2F)C(=O)CC(C)(C)C1(O)/C=C/C(C)=C\C(=O)O (racemic) [Example 43, (2Z,4E)-5-(3-(2-fluorocyclopropyl)-1-hydroxy-2,6,6-trimethyl-4-oxocyclohex-2-en-1-yl)-3-methylpenta-2,4-dienoic acid]",germination inhibition activity compared to (S)-ABA (in words),[1],the same level of potency as (S)-ABA
same,Arabidopsis seed germination inhibition potency,[2],+++
"CC1=C(CC(F)(F)F)C(=O)CC(C)(C)C1(O)/C=C/C(C)=C\C(=O)O (racemic) [Example 44, (2Z,4E)-5-(1-hydroxy-2,6,6-trimethyl-4-oxo-3-(2,2,2-trifluoroethyl)cyclohex-2-en-1-yl)-3-methylpenta-2,4-dienoic acid]",Arabidopsis seed germination inhibition potency,[2],++
"CC1=C(C(F)(F)F)C(=O)CC(C)(C)C1(O)/C=C/C(C)=C\C(=O)O (racemic) [Example 45, (2Z,4E)-5-(1-hydroxy-2,6,6-trimethyl-4-oxo-3-(trifluoromethyl)cyclohex-2-en-1-yl)-3-methylpenta-2,4-dienoic acid]",germination inhibition activity compared to (S)-ABA (in words),[1],more active than (S)-ABA
same,Arabidopsis seed germination inhibition potency,[2],++++
"CC1=CC(=O)CC(C)(C)[C@@]1(O)/C=C/C(C)=C/C(=O)O [(S)-ABA, (S)-abscisic acid, reference compound]",Arabidopsis seed germination inhibition potency,[3],+ + +
same,Arabidopsis seed germination inhibition potency,[2],+++
"COc1cc([N+](=O)[O-])ccc1CC1=C(C)[C@](O)(/C=C/C(C)=C\C(=O)O)C(C)(C)CC1=O [Example 27, (2Z,4E)-5-((S)-1-hydroxy-3-(2-methoxy-4-nitrobenzyl)-2,6,6-trimethyl-4-oxocyclohex-2-en-1-yl)-3-methylpenta-2,4-dienoic acid]",Arabidopsis seed germination inhibition potency,[3],−−
"CC1=C(Cc2nc3ccccc3s2)C(=O)CC(C)(C)[C@@]1(O)/C=C/C(C)=C\C(=O)O [Example 28, (2Z,4E)-5-((S)-3-(benzo[d]thiazol-2-ylmethyl)-1-hydroxy-2,6,6-trimethyl-4-oxocyclohex-2-en-1-yl)-3-methylpenta-2,4-dienoic acid]",Arabidopsis seed germination inhibition potency,[3],−−
"CC#CCC1=C(C)[C@](O)(/C=C/C(C)=C\C(=O)O)C(C)(C)CC1=O [Example 47, (2Z,4E)-5-((S)-3-(but-2-yn-1-yl)-1-hydroxy-2,6,6-trimethyl-4-oxocyclohex-2-en-1-yl)-3-methylpenta-2,4-dienoic acid]",Arabidopsis seed germination inhibition potency,[3],++
"CCC#CCC1=C(C)[C@](O)(/C=C/C(C)=C\C(=O)O)C(C)(C)CC1=O [Example 48, (2Z,4E)-5-((S)-1-hydroxy-2,6,6-trimethyl-4-oxo-3-(pent-2-yn-1-yl)cyclohex-2-en-1-yl)-3-methylpenta-2,4-dienoic acid]",Arabidopsis seed germination inhibition potency,[3],+
"CC1=C(C/C=C/C(=O)O)C(=O)CC(C)(C)[C@@]1(O)/C=C/C(C)=C\C(=O)O [Example 49, (2Z,4E)-5-((S)-3-((E)-3-carboxyallyl)-1-hydroxy-2,6,6-trimethyl-4-oxocyclohex-2-en-1-yl)-3-methylpenta-2,4-dienoic acid]",Arabidopsis seed germination inhibition potency,[3],−−
"CC1=C(C/C=C/c2ccccc2)C(=O)CC(C)(C)[C@@]1(O)/C=C/C(C)=C\C(=O)O [Example 50, (2Z,4E)-5-((S)-3-cinnamyl-1-hydroxy-2,6,6-trimethyl-4-oxocyclohex-2-en-1-yl)-3-methylpenta-2,4-dienoic acid]",Arabidopsis seed germination inhibition potency,[3],+
